Results on 18 molecules are retold here after patent US20210261621A1, “Preparation of Dilipid Polymixins and Use Thereof as Antimicrobial Adjuvants” (priority 2018, published 2021).

Where two headings read alike, the source gives them in different places.

In the assay the test system is P. aeruginosa PAO1. Also noted: MICDrug / MICDrug in combo / MIC of adjuvant in combo: unit not given beside the values. The settings on record: for MICDrug: antibiotic alone. How it is done: The potential of the dilipid polymyxins to serve as an adjuvant in combination with other antibiotics was evaluated against P. aeruginosa PAO1 strain (Tables 4 and 7-12). […] Checkerboard assays were performed with the dilipid polymyxins in combination with twenty-one clinically-used antibiotics. The panel included representatives from the β-lactam, carbapenem, tetracycline, aminoglycoside and fluoroquinolone antibiotic families. Other agents that are used to treat Gram-negative bacterial infection such as fosfomycin, trimethoprim and chloramphenicol were also included. […] Fractional inhibitory concentration (FIC) index was calculated for each combination to measure potential synergism between the two agents. FIC was obtained by dividing the MIC of antibiotic/adjuvant in combination by the MIC of antibiotic/adjuvant alone, while FIC index was calculated by the summation of FIC indices for the antibiotic and adjuvant. An FIC index of ≤0.5, 0.5<x≤4, or >4 denotes for synergistic, additive or antagonistic interaction, respectively. Initially, we assessed the adjuvant properties of PMBN against the panel of 21 antibiotics.
The assay was performed on 96-well plates as previously described. Briefly, the antibiotic at study was 2-fold serially diluted along the x-axis, while the adjuvant was 2-fold serially diluted along the y-axis to create a matrix in which each well consists of a combination of both at different concentrations. Overnight grown bacterial cultures were diluted in saline to 0.5 McFarland turbidity, followed by 1:50 dilution in MHB and inoculation on each well to a final concentration of approximately 5×10^5 colony forming units/mL. Wells containing only MHB with or without bacterial cells were used as positive or negative control, respectively. […] The fractional inhibitory concentration (FIC) of the antibiotic was calculated via dividing the MIC of antibiotic in the presence of adjuvant by the MIC of antibiotic alone. Similarly, the FIC of adjuvant was calculated via dividing the MIC of adjuvant in the presence of antibiotic by the MIC of adjuvant alone. The FIC index was obtained by the summation of both FIC values. The FIC index was then interpreted as synergistic, additive, or antagonistic for values of ≤0.5, 0.5<x<4, or ≥4, respectively.

The mark [1] stands for this setting: antibiotic in combination with 1.
[2] abbreviates: antibiotic in combination with 2.
Where [3] appears, read: antibiotic in combination with 3.
Setting [4] is: antibiotic in combination with 4.
[5] abbreviates: antibiotic in combination with 5.
Setting [6] is: antibiotic in combination with PMBN.

Turning to `COc1c(N2C[C@@H]3CCCN[C@@H]3C2)c(F)cc2c(=O)c(C(=O)O)cn(C3CC3)c12` [Moxifloxacin, reference compound], the MICDrug was found to be 1. For the same molecule, under setting [1], the MICDrug in combo result is listed as “(0.125)”. Also, the MICDrug in combo entry under setting [2] is listed as “(1)”. Further, under setting [3], the MICDrug in combo result is reported as “(0.5)”. For the same molecule, the MICDrug in combo entry under setting [4] is on record as “(1)”. For the same molecule, under setting [5], the MICDrug in combo result was “(0.25)”. For the same molecule, the MICDrug in combo entry under setting [6] is “(0.125)”.

For Gentamicin [reference compound], the MICDrug is 2. Besides, the MICDrug in combo result under setting [1] is “(2)”. Moreover, the MICDrug in combo result under setting [2] was “(4)”. The MICDrug in combo entry under setting [3] is “(2)”. Besides, the MICDrug in combo entry under setting [4] is listed as “(2)”. The MICDrug in combo entry under setting [5] is listed as “(4)”. Under setting [6], the MICDrug in combo result was “(2)”.

As for `CCN1CCN(C(=O)N[C@@H](C(=O)N[C@@H]2C(=O)N3[C@@H]2SC(C)(C)[C@@H]3C(=O)O)c2ccccc2)C(=O)C1=O` [Piperacillin, reference compound], the MICDrug is 4. The MICDrug in combo result under setting [1] is reported as “(2)”. For the same molecule, the MICDrug in combo result under setting [2] is recorded as “(0.0625)”. Moreover, under setting [3], the MICDrug in combo entry is listed as “(2)”. For the same molecule, the MICDrug in combo entry under setting [4] is given as “(4)”. The MICDrug in combo entry under setting [5] is recorded as “(2)”. Under setting [6], the MICDrug in combo entry is recorded as “(1)”.

On to `C[C@@H](O)[C@H]1C(=O)N2C(C(=O)O)=C(S[C@@H]3CN[C@H](CNS(N)(=O)=O)C3)[C@H](C)[C@H]12` [Doripenem, reference compound], for which the MICDrug was 1. Further, the MICDrug in combo entry under setting [1] was “(0.5)”. Moreover, the MICDrug in combo entry under setting [2] is on record as “(0.125)”. For the same molecule, the MICDrug in combo result under setting [3] was “(0.5)”. In addition, the MICDrug in combo result under setting [4] is “(0.0625)”. Under setting [5], the MICDrug in combo result is on record as “(0.5)”. The MICDrug in combo entry under setting [6] is listed as “(0.25)”.

For `CN(C)c1ccc(O)c2c1C[C@H]1C[C@H]3[C@H](N(C)C)C(O)=C(C(N)=O)C(=O)[C@@]3(O)C(O)=C1C2=O` [Minocycline, reference compound], the MICDrug amounted to 16. For the same molecule, the MICDrug in combo result under setting [1] is “(1)”. Further, the MICDrug in combo result under setting [2] is reported as “(4)”. In addition, the MICDrug in combo entry under setting [3] is given as “(2)”. Besides, under setting [4], the MICDrug in combo entry was “(4)”. Also, under setting [5], the MICDrug in combo result is “(2)”. In addition, the MICDrug in combo entry under setting [6] is on record as “(0.5)”.

For the molecule `COc1cc(Cc2cnc(N)nc2N)cc(OC)c1OC` [Trimethoprim, reference compound], the MICDrug was determined as 128. Besides, under setting [1], the MICDrug in combo result is recorded as “(16)”. For the same molecule, under setting [2], the MICDrug in combo result is given as “(8)”. Moreover, the MICDrug in combo result under setting [3] was “(16)”. Also, the MICDrug in combo result under setting [4] was “(0.25)”. For the same molecule, the MICDrug in combo entry under setting [5] is given as “(16)”. The MICDrug in combo result under setting [6] is recorded as “(8)”.

For the molecule `C[C@H]1[C@H](NC(=O)/C(=N\OC(C)(C)C(=O)O)c2csc(N)n2)C(=O)N1S(=O)(=O)O` [Aztreonam, reference compound], the MICDrug is given as 4. Further, the MICDrug in combo result under setting [1] is on record as “(0.5)”. The MICDrug in combo entry under setting [3] is “(1)”. Moreover, the MICDrug in combo entry under setting [4] was “(0.0625)”. Moreover, the MICDrug in combo entry under setting [5] was “(0.5)”. Further, the MICDrug in combo result under setting [6] is “(0.5)”.

As for `C[C@@H]1O[C@@H]1P(=O)(O)O` [Fosfomycin, reference compound], the MICDrug in combo entry is listed as “(2)” under setting [1]; “(0.125)” under setting [2]; “(8)” under setting [3]; “(8)” under setting [4]; “(1)” under setting [5]; “(2)” under setting [6].

Consider `O=C(N[C@H](CO)[C@H](O)c1ccc([N+](=O)[O-])cc1)C(Cl)Cl` [Chloramphenicol, reference compound], for which the MICDrug is 32. For the same molecule, the MICDrug in combo entry under setting [1] is reported as “(2)”. Besides, under setting [2], the MICDrug in combo result was “(4)”. Under setting [3], the MICDrug in combo entry is given as “(4)”. Besides, under setting [4], the MICDrug in combo entry is on record as “(4)”. In addition, the MICDrug in combo result under setting [5] was “(8)”. Besides, the MICDrug in combo result under setting [6] was “(2)”.

Regarding `C=C[C@]1(C)C[C@@H](OC(=O)CO)[C@]2(C)[C@H](C)CC[C@]3(CCC(=O)[C@H]32)[C@@H](C)[C@@H]1O` [Pleuromutilin, reference compound], the MICDrug amounted to 512. For the same molecule, the MICDrug in combo entry under setting [1] is “(4)”. For the same molecule, the MICDrug in combo entry under setting [2] is “(4)”. The MICDrug in combo result under setting [3] is “(8)”. In addition, under setting [4], the MICDrug in combo result is on record as “(4)”. For the same molecule, the MICDrug in combo entry under setting [5] is on record as “(2)”. For the same molecule, the MICDrug in combo result under setting [6] is listed as “(16)”.

Regarding `CO[C@H]1/C=C/O[C@@]2(C)Oc3c(C)c(O)c4c(O)c(c(/C=N/N5CCN(C)CC5)c(O)c4c3C2=O)NC(=O)/C(C)=C\C=C\[C@H](C)[C@H](O)[C@@H](C)[C@@H](O)[C@@H](C)[C@H](OC(C)=O)[C@@H]1C` [Rifampicin, reference compound], the MICDrug is 16. In addition, the MICDrug in combo entry under setting [2] was “(8)”. Besides, the MICDrug in combo result under setting [3] is reported as “(8)”. For the same molecule, the MICDrug in combo entry under setting [4] is given as “(0.25)”. In addition, the MICDrug in combo result under setting [5] was “(1)”. In addition, the MICDrug in combo result under setting [6] is on record as “(0.0625)”.

Turning to `C[C@H]1c2cccc(O)c2C(=O)C2=C(O)[C@]3(O)C(=O)C(C(N)=O)=C(O)[C@@H](N(C)C)[C@@H]3[C@@H](O)[C@@H]21` [Doxycycline, reference compound], the MICDrug in combo result under setting [1] is recorded as “(0.5)”; the MICDrug in combo entry under setting [2] was “(0.125)”; the MICDrug in combo result under setting [3] was “(1)”; the MICDrug in combo result under setting [4] was “(4)”; the MICDrug in combo result under setting [5] is on record as “(0.25)”; the MICDrug in combo entry under setting [6] is listed as “(0.25)”.

On to `[H]/N=C(/N)N[C@H]1[C@H](O)[C@@H](O)[C@H](O[C@@H]2O[C@@H](C)[C@](O)(C=O)[C@H]2O[C@@H]2O[C@@H](CO)[C@H](O)[C@@H](O)[C@@H]2NC)[C@@H](N/C(N)=N\[H])[C@@H]1O` [Streptomycin, reference compound], for which the MICDrug was 16. Moreover, the MICDrug in combo entry under setting [1] is reported as “(8)”. Besides, under setting [2], the MICDrug in combo result is given as “(4)”. Besides, the MICDrug in combo entry under setting [3] is listed as “(16)”. Also, the MICDrug in combo entry under setting [4] is “(16)”. Further, the MICDrug in combo entry under setting [5] is on record as “(8)”. The MICDrug in combo entry under setting [6] was “(8)”.

On to `CC(=O)NC[C@H]1CN(c2ccc(N3CCOCC3)c(F)c2)C(=O)O1` [Linezolid, reference compound], for which the MICDrug was determined as 1024. In addition, the MICDrug in combo entry under setting [1] is recorded as “(64)”. In addition, the MICDrug in combo entry under setting [2] was “(1)”. The MICDrug in combo result under setting [3] is “(0.25)”. For the same molecule, under setting [4], the MICDrug in combo entry is given as “(0.25)”. The MICDrug in combo entry under setting [5] was “(32)”. Besides, the MICDrug in combo result under setting [6] is “(32)”.

Take `CN[C@H](CC(C)C)C(=O)N[C@H]1C(=O)N[C@@H](CC(N)=O)C(=O)N[C@H]2C(=O)N[C@H]3C(=O)N[C@H](C(=O)N[C@H](C(=O)O)c4cc(O)cc(O)c4-c4cc3ccc4O)[C@H](O)c3ccc(c(Cl)c3)Oc3cc2cc(c3O[C@@H]2O[C@H](CO)[C@@H](O)[C@H](O)[C@H]2O[C@H]2C[C@](C)(N)[C@H](O)[C@H](C)O2)Oc2ccc(cc2Cl)[C@H]1O` [Vancomycin, reference compound]: the MICDrug is 256. In addition, the MICDrug in combo entry under setting [1] is given as “(8)”. Also, the MICDrug in combo entry under setting [2] is listed as “(2)”. Besides, under setting [3], the MICDrug in combo result is listed as “(128)”. In addition, the MICDrug in combo entry under setting [4] is listed as “(64)”. Besides, the MICDrug in combo entry under setting [5] is “(2)”. Under setting [6], the MICDrug in combo result was “(4)”.

Turning to `C[C@@H](O)[C@H]1C(=O)N2C(C(=O)O)=C(S[C@@H]3CN[C@H](C(=O)N(C)C)C3)[C@H](C)[C@H]12` [Meropenem, reference compound], the MICDrug in combo result is given as “(0.25)” under setting [1]; “(0.0625)” under setting [2]; “(0.5)” under setting [3]; “(0.5)” under setting [4]; “(0.5)” under setting [5]; “(0.125)” under setting [6].

For the molecule `CO[C@@H]1[C@@H](OC(N)=O)[C@@H](O)[C@H](Oc2ccc3c(O)c(NC(=O)c4ccc(O)c(CC=C(C)C)c4)c(=O)oc3c2C)OC1(C)C` [Novobiocin, reference compound], the MICDrug was 512. Besides, the MICDrug in combo entry under setting [1] is “(16)”. Besides, under setting [2], the MICDrug in combo result was “(8)”. For the same molecule, the MICDrug in combo result under setting [3] is given as “(0.5)”. Further, the MICDrug in combo result under setting [4] is recorded as “(2)”. Besides, the MICDrug in combo result under setting [5] was “(128)”. Moreover, the MICDrug in combo entry under setting [6] is reported as “(4)”.

Turning to `NC[C@H]1O[C@H](O[C@H]2[C@H](O)[C@@H](O[C@H]3O[C@H](CO)[C@@H](O)[C@H](N)[C@H]3O)[C@H](N)C[C@@H]2N)[C@H](N)C[C@@H]1O` [Tobramycin, reference compound], the MICDrug worked out at 1. For the same molecule, under setting [1], the MICDrug in combo entry is reported as “(1)”. In addition, the MICDrug in combo entry under setting [2] is on record as “(1)”. Also, the MICDrug in combo result under setting [3] was “(1)”. Also, the MICDrug in combo entry under setting [4] is reported as “(1)”. The MICDrug in combo entry under setting [5] is recorded as “(1)”. Further, the MICDrug in combo result under setting [6] is “(1)”.
